Laboratory results taken from US20100075907A1, “NEUROMEDIN U RECEPTOR AGONISTS AND USES THEREOF” (priority 2006, published 2010).
Non-standard residues stand in square brackets, D forms with d. Residues, ends and D or L forms follow the SMILES beside them. No end group written: not given here. hArg = N=C(N)NCCCC[C@H](N)C(=O)O; dNle = CCCC[C@@H](N)C(=O)O

What follows are molecules tested against hNMUR2 (Homo sapiens, UniProt Q9GZQ4) (assay: 125I-hNMU-25 binding assay, human NMUR2 membranes). Conditions: Table 8, HEK-hR2, binding.
Set-up: expressed in transfected cells; host or cells: HEK-293 FLP-In cells (pcDNA5); HEK-293/aeq17 lines (pcDNA3.1) were also made; % inhibition of NMU-25 binding / % Activity: concentration or dose not given beside the values
Protocol: Confluent cell monolayers expressing NMU receptors (the HEK cells described above) were harvested with phosphate buffered saline, collected by centrifugation, and resuspended in membrane buffer (50 mM TrisCl pH 7.4, 5 mM MgCl2, 1× Protease Inhibitor Cocktail, 10 μM phosphoramidon). After the cell pellet was homogenized, the solution was centrifuged at 18,000 rpm for 20 minutes at 4° C. The pellet was resuspended in membrane buffer to yield a final concentration of 0.5-5 μg/μL of membrane and stored at −80° C.
Experiments were performed in assay buffer (25 mM TrisCl, pH 7.4, 10 mM MgCl2, 2 mM EDTA, 1× Protease Inhibitor Cocktail, 100 μg/mL Bacitricin, 10 μM phosphoramidon) in 200 μL volumes in a 96-well format using 2-5 μg of membrane and 0.1 nM ^125I-hNMU-25 (about 12,000 cpm/well). For non-specific binding, 1 μM hNMU-25 was added. About 5 μL of peptides were added to measure antagonist activity, and the entire reaction was incubated at room temperature with shaking for 80 minutes. The reaction was terminated by rapid filtration through 0.3% poly-ethylenimine presoaked Millipore 96-well filter plates and washed with ice-cold buffer (5 mM TrisCl pH 7.4, 10 mM MgCl2, 2.5 mM EDTA, 0.04% Triton X-100). Plates were air-dried overnight at room temperature and recovered radioactivity was determined by standard scintillation counting. IC50 values were determined using GraphPad Prism software.
Concentration-response curves and radioligand-binding data were fitted using Prism (GraphPad Software). Results are summarized below in Tables 8 and 9.

Sequence of hNMUR2 (Q9GZQ4 whole entry): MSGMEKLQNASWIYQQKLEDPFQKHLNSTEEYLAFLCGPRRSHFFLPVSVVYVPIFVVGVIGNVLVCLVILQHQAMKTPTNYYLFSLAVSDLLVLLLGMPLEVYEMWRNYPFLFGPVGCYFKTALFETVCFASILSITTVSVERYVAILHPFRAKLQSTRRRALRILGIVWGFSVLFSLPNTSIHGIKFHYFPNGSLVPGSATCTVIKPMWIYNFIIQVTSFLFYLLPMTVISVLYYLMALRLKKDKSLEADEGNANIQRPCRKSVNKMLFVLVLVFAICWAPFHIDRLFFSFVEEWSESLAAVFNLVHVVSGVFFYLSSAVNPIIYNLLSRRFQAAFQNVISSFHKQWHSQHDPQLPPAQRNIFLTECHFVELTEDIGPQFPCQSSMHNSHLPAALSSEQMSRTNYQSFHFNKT

| Molecule | % Activity | IC50 |
| --- | --- | --- |
| CC(C)C[C@@H](NC(=O)[C@H](Cc1ccccc1)NC(=O)[C@@H](N)Cc1ccc(O)cc1)C(=O)N[C@@H](Cc1c[nH]c2ccccc12)C(=O)N[C@@H](CCCNC(=N)N)C(=O)N1CCC[C@H]1C(=O)N[C@@H](CCCNC(=N)N)C(=O)N[C@@H](CC(N)=O)C(N)=O [Agonist B, YF-(D-L)-WRPRN-CONH2] (H-YF[dL]WRPRN-NH2) | 35% | > 1000 nM |
| C[C@@H](NC(=O)[C@H](Cc1ccccc1)NC(=O)[C@@H](N)Cc1ccc(O)cc1)C(=O)N[C@@H](Cc1c[nH]c2ccccc12)C(=O)N[C@@H](CCCNC(=N)N)C(=O)N1CCC[C@H]1C(=O)N[C@@H](CCCNC(=N)N)C(=O)N[C@@H](CC(N)=O)C(N)=O [Agonist D, YF-(D-A)-WRPRN-CONH2] (H-YF[dA]WRPRN-NH2; N-terminus assumed) | 0% | > 1000 nM |
| CC(=O)N[C@@H](Cc1ccccc1)C(=O)N[C@H](CC(C)C)C(=O)N[C@@H](Cc1c[nH]c2ccccc12)C(=O)N[C@@H](CCCNC(=N)N)C(=O)N1CCC[C@H]1C(=O)N[C@@H](CCCNC(=N)N)C(=O)N[C@@H](CC(N)=O)C(N)=O [Agonist E, Ac-F-(D-L)-WRPRN-CONH2] (Ac-F[dL]WRPRN-NH2) | 5% | > 1000 nM |
| Ac-FFRPRN-NH2 [Agonist F, Ac-FFRPRN-CONH2] | 12% | > 1000 nM |
| H-FRVDEEFQSPFASQSRGYFWRPRN-NH2 [Agonist G] | 33% |  |
| H-YFGWRPRN-NH2 [Agonist C] | 0% | > 1000 nM |
| YFWRPRN-NH2 [Agonist A, YFWRPRN-CONH2] | 0% | > 1000 nM |

Same assay, conditions: Table 9, HEK-hR2, binding

| Molecule | % Activity | IC50 |
| --- | --- | --- |
| CC(C)C[C@H](NC(=O)[C@H](Cc1c[nH]c2ccccc12)NC(=O)[C@@H](N)Cc1ccccc1)C(=O)N[C@@H](Cc1ccccc1)C(=O)N[C@@H](CCCNC(=N)N)C(=O)N1CCC[C@H]1C(=O)N[C@@H](CCCCNC(=N)N)C(=O)N[C@@H](CC(N)=O)C(N)=O [Agonist I, FWLFRP-(Harg)-N-CONH2] (H-FWLFRP[hArg]N-NH2) | 90% |  |
| CC(C)C[C@H](NC(=O)[C@H](Cc1c[nH]c2ccccc12)NC(=O)[C@@H](N)Cc1ccccc1)C(=O)N[C@@H](Cc1ccccc1)C(=O)N[C@@H](CCCNC(=N)N)C(=O)N[C@@H](C)C(=O)N[C@@H](CCCCNC(=N)N)C(=O)N[C@@H](CC(N)=O)C(N)=O [Agonist J, FWLFRA-(Harg)-N-CONH2] (H-FWLFRA[hArg]N-NH2) | 63% | 150 nM |
| CCCC[C@@H](NC(=O)[C@H](CCCNC(=N)N)NC(=O)[C@H](C)NC(=O)[C@H](CCCNC(=N)N)NC(=O)[C@H](Cc1ccccc1)NC(=O)[C@H](CC(C)C)NC(=O)[C@H](Cc1ccccc1)NC(=O)[C@@H](N)Cc1c[nH]c2ccccc12)C(N)=O [Agonist K, WFLFRAR-(D-Nle)-CONH2] (H-WFLFRAR[dNle]-NH2) | 100% |  |
| CC(C)C[C@H](NC(=O)[C@H](Cc1c[nH]c2ccccc12)NC(=O)[C@H](Cc1ccccc1)NC(=O)CNC(=O)[C@H](CCCNC(=N)N)NC(=O)[C@H](CO)NC(=O)[C@H](CCC(N)=O)NC(=O)[C@H](CO)NC(=O)[C@H](C)NC(=O)[C@H](Cc1ccccc1)NC(=O)[C@@H]1CCCN1C(=O)[C@H](CO)NC(=O)[C@H](CCC(N)=O)NC(=O)[C@H](Cc1ccccc1)NC(=O)[C@H](CCC(=O)O)NC(=O)[C@H](CCC(=O)O)NC(=O)[C@H](CC(=O)O)NC(=O)[C@@H](NC(=O)[C@H](CCCNC(=N)N)NC(=O)[C@@H](N)Cc1ccccc1)C(C)C)C(=O)N[C@@H](Cc1ccccc1)C(=O)N[C@@H](CCCNC(=N)N)C(=O)N1CCC[C@H]1C(=O)N[C@@H](CCCCNC(=N)N)C(=O)N[C@@H](CC(N)=O)C(N)=O [Agonist O] (H-FRVDEEFQSPFASQSRGFWLFRP[hArg]N-NH2; N-terminus assumed) | 92% | 3 nM |
| CC(C)C[C@H](NC(=O)[C@H](Cc1c[nH]c2ccccc12)NC(=O)[C@H](Cc1ccccc1)NC(=O)CNC(=O)[C@H](CCCNC(=N)N)NC(=O)[C@H](CO)NC(=O)[C@H](CCC(N)=O)NC(=O)[C@H](CO)NC(=O)[C@H](C)NC(=O)[C@H](Cc1ccccc1)NC(=O)[C@@H]1CCCN1C(=O)[C@H](CO)NC(=O)[C@H](CCC(N)=O)NC(=O)[C@H](Cc1ccccc1)NC(=O)[C@H](CCC(=O)O)NC(=O)[C@H](CCC(=O)O)NC(=O)[C@H](CC(=O)O)NC(=O)[C@@H](NC(=O)[C@H](CCCNC(=N)N)NC(=O)[C@@H](N)Cc1ccccc1)C(C)C)C(=O)N[C@@H](Cc1ccccc1)C(=O)N[C@@H](CCCNC(=N)N)C(=O)N[C@@H](C)C(=O)N[C@@H](CCCCNC(=N)N)C(=O)N[C@@H](CC(N)=O)C(N)=O [Agonist P] (H-FRVDEEFQSPFASQSRGFWLFRA[hArg]N-NH2; N-terminus assumed) | 81% | 150 nM |
| CCCC[C@@H](NC(=O)[C@H](CCCNC(=N)N)NC(=O)[C@@H]1CCCN1C(=O)[C@H](CCCNC(=N)N)NC(=O)[C@H](Cc1ccccc1)NC(=O)[C@H](CC(C)C)NC(=O)[C@H](Cc1c[nH]c2ccccc12)NC(=O)[C@H](Cc1ccccc1)NC(=O)CNC(=O)[C@H](CCCNC(=N)N)NC(=O)[C@H](CO)NC(=O)[C@H](CCC(N)=O)NC(=O)[C@H](CO)NC(=O)[C@H](C)NC(=O)[C@H](Cc1ccccc1)NC(=O)[C@@H]1CCCN1C(=O)[C@H](CO)NC(=O)[C@H](CCC(N)=O)NC(=O)[C@H](Cc1ccccc1)NC(=O)[C@H](CCC(=O)O)NC(=O)[C@H](CCC(=O)O)NC(=O)[C@H](CC(=O)O)NC(=O)[C@@H](NC(=O)[C@H](CCCNC(=N)N)NC(=O)[C@@H](N)Cc1ccccc1)C(C)C)C(N)=O [Agonist Q] (H-FRVDEEFQSPFASQSRGFWLFRPR[dNle]-NH2) | 89% |  |
| CC(C)C[C@H](NC(=O)[C@H](Cc1ccccc1)NC(=O)[C@@H](N)Cc1ccc(O)cc1)C(=O)N[C@@H](Cc1ccccc1)C(=O)N[C@@H](CCCNC(=N)N)C(=O)N1CCC[C@H]1C(=O)N[C@@H](CCCNC(=N)N)C(=O)N[C@@H](CC(N)=O)C(N)=O [NMU-8, reference compound] | 100% |  |
| FALFRPRN-NH2 [Agonist N] | 100% |  |
| H-FWLFRARN-NH2 [Agonist L] | 100% |  |
| WALFRARN-NH2 [Agonist M] | 71% | 180 nM |
